Measured values published in patent US20250136606A1, “MODULATORS OF TRPML, THEIR COMPOSITIONS AND METHODS OF USE” (Caraway Therapeutics, Inc., priority 2021, published 2025).

Experiments:
Type in all cases: cell-based
Conditions in all cases: fluorescent calcium assay
[1] = target: T1, TRPML2 (Homo sapiens, UniProt Q8IZK6); assay: Fluorescent TRPML2 assay (performed as for TRPML1, substituting the TRPML2 subtype)
T1 construct: expressed in transfected cells
T1 sequence (Q8IZK6 1-566): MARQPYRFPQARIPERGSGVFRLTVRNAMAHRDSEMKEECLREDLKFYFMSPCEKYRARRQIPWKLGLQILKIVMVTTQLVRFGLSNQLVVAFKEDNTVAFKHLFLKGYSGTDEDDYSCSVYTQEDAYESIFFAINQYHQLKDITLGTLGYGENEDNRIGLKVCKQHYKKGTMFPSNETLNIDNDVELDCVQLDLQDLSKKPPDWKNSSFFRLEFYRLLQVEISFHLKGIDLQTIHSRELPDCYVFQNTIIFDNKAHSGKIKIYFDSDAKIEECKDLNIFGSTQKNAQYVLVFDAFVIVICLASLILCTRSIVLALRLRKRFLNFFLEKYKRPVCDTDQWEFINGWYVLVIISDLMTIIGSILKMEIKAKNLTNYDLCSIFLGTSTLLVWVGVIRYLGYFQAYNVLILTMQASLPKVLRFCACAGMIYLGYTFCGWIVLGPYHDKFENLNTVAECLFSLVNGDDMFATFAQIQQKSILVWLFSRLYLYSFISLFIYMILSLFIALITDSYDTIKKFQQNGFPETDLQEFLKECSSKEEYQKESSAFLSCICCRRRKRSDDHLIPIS
Procedure, shortened: (§1)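 HEK-293 Trex cells with doxycycline-induced (0.5 ug/mL) surface-directed human TRPML subtype, loaded with 1 μM Fluo4-AM, resuspended in Ringer's with 10 mM calcium. Compounds at 20 μM to 6 nM final in half-log steps, triplicate; fluorescence ex 480/em 540; EC50 by non-linear regression versus plate controls.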

[2] = target: TRPML1 (Homo sapiens, UniProt Q9GZU1); assay: Fluorescent TRPML1 assay (Fluo4-AM calcium fluorescence in doxycycline-induced HEK-293 Trex cells)
Procedure, shortened: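 HEK-293 Trex cells stably expressing surface-directed mutant human TRPML1, induced with 0.5 µg/mL doxycycline overnight, were loaded with 1 µM Fluo4-AM and added to compound (6 nM–20 µM final, half-log steps, triplicate) in Ringer's with 10 mM calcium. Fluorescence ex 480/em 540; EC50 by non-linear regression versus plate controls.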

[3] = target: T2, TRPML3 (Homo sapiens, UniProt Q8TDD5); assay: Fluorescent TRPML3 assay (performed as for TRPML1, substituting the TRPML3 subtype)
T2 construct: expressed in transfected cells
T2 sequence (Q8TDD5 1-553): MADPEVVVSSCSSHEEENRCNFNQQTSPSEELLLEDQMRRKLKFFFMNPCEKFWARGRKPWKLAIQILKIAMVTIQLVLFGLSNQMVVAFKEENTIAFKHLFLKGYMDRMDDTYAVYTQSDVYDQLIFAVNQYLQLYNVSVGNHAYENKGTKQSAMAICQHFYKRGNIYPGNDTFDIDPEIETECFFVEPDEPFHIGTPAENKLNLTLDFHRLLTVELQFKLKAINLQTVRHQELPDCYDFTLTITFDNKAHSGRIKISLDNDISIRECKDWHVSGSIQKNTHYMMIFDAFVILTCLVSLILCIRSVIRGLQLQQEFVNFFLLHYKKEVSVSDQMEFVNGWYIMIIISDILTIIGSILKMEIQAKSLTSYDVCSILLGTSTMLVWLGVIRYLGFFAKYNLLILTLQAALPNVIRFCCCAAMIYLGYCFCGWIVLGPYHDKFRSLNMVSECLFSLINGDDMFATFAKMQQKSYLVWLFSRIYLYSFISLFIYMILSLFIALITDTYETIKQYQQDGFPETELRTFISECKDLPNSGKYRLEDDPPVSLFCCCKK
Procedure, shortened: as §1

Sequence of TRPML1 (Q9GZU1 whole entry L15A/L16A/L577A/L578A, form open): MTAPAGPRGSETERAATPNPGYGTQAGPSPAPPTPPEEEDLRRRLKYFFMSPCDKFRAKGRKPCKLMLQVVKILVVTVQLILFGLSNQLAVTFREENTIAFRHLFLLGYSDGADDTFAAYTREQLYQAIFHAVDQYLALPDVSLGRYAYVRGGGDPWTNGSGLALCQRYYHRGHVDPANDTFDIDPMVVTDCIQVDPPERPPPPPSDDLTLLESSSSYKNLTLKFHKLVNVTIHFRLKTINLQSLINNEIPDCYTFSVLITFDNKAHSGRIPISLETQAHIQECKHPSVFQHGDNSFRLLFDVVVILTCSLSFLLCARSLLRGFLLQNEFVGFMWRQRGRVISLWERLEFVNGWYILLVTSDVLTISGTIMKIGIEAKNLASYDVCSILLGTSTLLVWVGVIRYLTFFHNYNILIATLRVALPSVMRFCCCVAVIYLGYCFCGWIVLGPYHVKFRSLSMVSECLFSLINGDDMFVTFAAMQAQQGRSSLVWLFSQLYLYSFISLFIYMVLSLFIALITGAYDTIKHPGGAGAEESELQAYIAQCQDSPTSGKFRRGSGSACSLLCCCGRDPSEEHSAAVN

SMILES	EC50 [1]	EC50 [2]	EC50 [3]
C[C@@H]1CN(C(=O)OC(C)(C)C)CCN1c1ncnc2c1c(N1CCCC1)cn2-c1cc(F)cc(F)c1 [Compound 255, tert-butyl (R)-4-(7-(3,5-difluorophenyl)-5-(pyrrolidin-1-yl)-7H-pyrrolo[2,3-d]pyrimidin-4-yl)-3-methylpiperazine-1-carboxylate]	500 to 2000 nM	100 to 500 nM	100 to 500 nM
CC[C@@H]1CN(c2ncnc3c2c(C2CC2)cn3-c2cc(F)cc(F)c2)CCN1C(=O)OC(C)(C)C [Compound 256, tert-butyl (R)-4-(5-cyclopropyl-7-(3,5-difluorophenyl)-7H-pyrrolo[2,3-d]pyrimidin-4-yl)-2-ethylpiperazine-1-carboxylate]	500 to 2000 nM	< 100 nM	< 100 nM
CC(C)(C)OC(=O)N1CCN(c2ncnc3c2c(C2CC2)cn3-c2cc(F)cc(F)c2)CC12CC2 [Compound 258, tert-Butyl 7-(5-cyclopropyl-7-(3,5-difluorophenyl)-7H-pyrrolo[2,3-d]pyrimidin-4-yl)-4,7-diazaspiro[2.5]octane-4-carboxylate]	500 to 2000 nM	< 100 nM	< 100 nM
C[C@H]1CN(C(=O)OC(C)(C)C)CCN1c1ncnc2c1c(C1CC1)cn2-c1cncc(C#N)c1 [Compound 259]	500 to 2000 nM	100 to 500 nM	100 to 500 nM
C[C@H]1CN(C(=O)OC(C)(C)C)CCN1c1ncnc2c1c(C1CCOCC1)nn2-c1ccccc1 [Compound 261, tert-butyl (S)-3-methyl-4-(1-phenyl-3-(tetrahydro-2H-pyran-4-yl)-1H-pyrazolo[3,4-d]pyrimidin-4-yl)piperazine-1-carboxylate]	> 2000 nM	500 to 2000 nM	500 to 2000 nM
COc1cc(OC(F)(F)F)cc(-n2cc(C3CC3)c3c(N4CCN(C(=O)OC(C)(C)C)C[C@@H]4C)ncnc32)c1 [Compound 264, tert-butyl (S)-4-(5-cyclopropyl-7-(3-methoxy-5-(trifluoromethoxy)phenyl)-7H-pyrrolo[2,3-d]pyrimidin-4-yl)-3-methylpiperazine-1-carboxylate]	500 to 2000 nM	100 to 500 nM	100 to 500 nM
C[C@H]1CN(C(=O)OC(C)(C)C)CCN1c1ncnc2c1c(-c1nccnc1F)cn2-c1cccc(Cl)c1 [Compound 267, tert-butyl (S)-4-(7-(3-chlorophenyl)-5-(3-fluoropyrazin-2-yl)-7H-pyrrolo[2,3-d]pyrimidin-4-yl)-3-methylpiperazine-1-carboxylate]	100 to 500 nM	100 to 500 nM	< 100 nM
COc1cccc(-n2cc(-c3cccnc3)c3c(N4CCN(C(=O)OC(C)(C)C)C[C@@H]4C)ncnc32)c1 [Compound 272, tert-butyl-(S)-4-(7-(3-methoxyphenyl)-5-(pyridin-3-yl)-7H-pyrrolo[2,3-d]pyrimidin-4-yl)-3-methylpiperazine-1-carboxylate]	500 to 2000 nM	100 to 500 nM	100 to 500 nM
C[C@H]1CN(C(=O)OC(C)(C)C)CCN1c1ncnc2c1c(-c1nccnc1C(F)(F)F)cn2-c1cccc(Cl)c1 [Compound 273, tert-butyl (S)-4-(7-(3-chlorophenyl)-5-(3-(trifluoromethyl)pyrazin-2-yl)-7H-pyrrolo[2,3-d]pyrimidin-4-yl)-3-methylpiperazine-1-carboxylate]	500 to 2000 nM	100 to 500 nM	100 to 500 nM

Continued, values first:

EC50 [1]	EC50 [2]	EC50 [3]	SMILES
> 2000 nM	100 to 500 nM	100 to 500 nM	C[C@@H]1CN(c2ncnc3c2c(-c2ccccc2F)cn3-c2cnn(C)c2)[C@@H](C)CN1C(=O)OCC(F)(F)F [Compound 254, 2,2,2-trifluoroethyl (2R,5S)-4-(5-(2-fluorophenyl)-7-(1-methyl-1H-pyrazol-4-yl)-7H-pyrrolo[2,3-d]pyrimidin-4-yl)-2,5-dimethylpiperazine-1-carboxylate]
500 to 2000 nM	100 to 500 nM	100 to 500 nM	CC[C@H]1CN(c2ncnc3c2c(C2CC2)cn3-c2cc(F)cc(F)c2)CCN1C(=O)OC(C)(C)C [Compound 257, tert-Butyl (S)-4-(5-cyclopropyl-7-(3,5-difluorophenyl)-7H-pyrrolo[2,3-d]pyrimidin-4-yl)-2-ethylpiperazine-1-carboxylate]
< 100 nM	< 100 nM	< 100 nM	C[C@H]1CN(C(=O)OC(C)(C)C)CCN1c1ncnc2c1c(C1CC1)cn2-c1cc(C#N)ccn1 [Compound 260]
500 to 2000 nM	< 100 nM	100 to 500 nM	C[C@@H]1CN(c2ncnc3c2c(N2CCC[C@@H]2C)cn3-c2cccc(Cl)c2)CCN1C(=O)OC(C)(C)C [Compound 262, tert-butyl (R)-4-(7-(3-chlorophenyl)-5-((S)-2-methylpyrrolidin-1-yl)-7H-pyrrolo[2,3-d]pyrimidin-4-yl)-2-methylpiperazine-1-carboxylate]
500 to 2000 nM	100 to 500 nM	100 to 500 nM	COc1cccc(-n2cc(C3CC3)c3c(N4CCN(C(=O)OC(C)(C)C(F)(F)F)C[C@@H]4C)ncnc32)c1 [Compound 263, 1,1,1-trifluoro-2-methylpropan-2-yl (S)-4-(5-cyclopropyl-7-(3-methoxyphenyl)-7H-pyrrolo[2,3-d]pyrimidin-4-yl)-3-methylpiperazine-1-carboxylate]
100 to 500 nM	< 100 nM	< 100 nM	C[C@H]1CN(C(=O)OC(C)(C)C(F)(F)F)CCN1c1ncnc2c1c(C1CC1)cn2-c1cccc(OC(F)(F)F)c1 [Compound 265, 1,1,1-trifluoro-2-methylpropan-2-yl (S)-4-(5-cyclopropyl-7-(3-(trifluoromethoxy)phenyl)-7H-pyrrolo[2,3-d]pyrimidin-4-yl)-3-methylpiperazine-1-carboxylate]
500 to 2000 nM	< 100 nM	< 100 nM	C[C@H]1CN(C(=O)OC(C)(C)C(F)(F)F)CCN1c1ncnc2c1c(C1CC1)cn2-c1cccc(C#N)c1 [Compound 266, 1,1,1-trifluoro-2-methylpropan-2-yl (S)-4-(7-(3-cyanophenyl)-5-cyclopropyl-7H-pyrrolo[2,3-d]pyrimidin-4-yl)-3-methylpiperazine-1-carboxylate]
< 100 nM	< 100 nM	< 100 nM	C[C@H]1CN(C(=O)OC(C)(C)C)CCN1c1ncnc2c1c(-c1ccccc1F)cn2-c1cc(C#N)ccn1 [Compound 268, tert-butyl (S)-4-(7-(4-cyanopyridin-2-yl)-5-(2-fluorophenyl)-7H-pyrrolo[2,3-d]pyrimidin-4-yl)-3-methylpiperazine-1-carboxylate]
100 to 500 nM	100 to 500 nM	100 to 500 nM	CCc1nccnc1-c1cn(-c2cccc(Cl)c2)c2ncnc(N3CCN(C(=O)OC(C)(C)C)C[C@@H]3C)c12 [Compound 271, tert-butyl (S)-4-(7-(3-chlorophenyl)-5-(3-ethylpyrazin-2-yl)-7H-pyrrolo[2,3-d]pyrimidin-4-yl)-3-methylpiperazine-1-carboxylate]
500 to 2000 nM	100 to 500 nM	100 to 500 nM	C[C@H]1CN(C(=O)OC(C)(C)C)CCN1c1ncnc2c1c(-c1nccnc1C#N)cn2-c1cccc(Cl)c1 [Compound 274, tert-butyl (S)-4-(7-(3-chlorophenyl)-5-(3-cyanopyrazin-2-yl)-7H-pyrrolo[2,3-d]pyrimidin-4-yl)-3-methylpiperazine-1-carboxylate]
